Data set [1] has as its target T1, 5-hydroxytryptamine receptor 2A (Rattus norvegicus, UniProt P14842). In words: Intrinsic activity at 5HT2A receptor in Wistar rat aorta. The class given is tissue-based.
The next data set concerns the target D(3) dopamine receptor (Homo sapiens, UniProt P35462). In words: Antagonist activity at human dopamine D3 receptor expressed in CHO-K1 cells by [35S]GTPgammaS binding assay. The class given is functional, cell-based. (GTPγS resists hydrolysis and so accumulates on activated G proteins.)
Data set [2] has as its system Mus musculus. Description: Antipsychotic activity in NMRI mouse assessed as reduction in phencyclidine-induced locomotor activity at 10 mg/kg administered 30 mins prior to testing measured for 60 mins. The class given is functional, organism-based. Details: dose 10 mg/kg.
The subject of data set [3] is Mus musculus. The conditions noted are these: NMRI.
Description: (§1) Antipsychotic activity in NMRI mouse assessed as reduction in phencyclidine-induced locomotor activity administered 30 mins prior to testing measured for 60 mins
The test system of data set [4] is Rattus norvegicus. Description: Induction of c-Fos protein expression in ip dosed rat dorsolateral striatum after 1 hr by light microscopy. The class given is functional, organism-based.
Data set [5] deals with Rattus norvegicus. Description: Induction of c-Fos protein expression in rat nucleus accumbens shell at 3 mg/kg, ip after 1 hr by light microscopy. In kind it is functional, organism-based. The arrangement: dose 3 mg/kg.
In data set [6] the test system is Mus musculus. In words: Antipsychotic activity in NMRI mouse assessed as reduction in phencyclidine-induced locomotor activity at 3 mg/kg administered 30 mins prior to testing measured for 60 mins. The class given is functional, organism-based. The arrangement: dose 3 mg/kg.
The test system of data set [7] is Mus musculus. In words: Antipsychotic activity in NMRI mouse assessed as reduction in methamphetamine-induced locomotor activity at 10 mg/kg administered 30 mins prior to testing measured for 60 mins relative to control. In kind it is functional, organism-based. The arrangement: dose 10 mg/kg.
Data set [8] deals with Rattus norvegicus. In words: Induction of c-Fos protein expression in rat dorsolateral striatum at 30 mg/kg, ip after 1 hr by light microscopy. In kind it is functional, organism-based. Details: dose 30 mg/kg.
Data set [9] is filed under the species Mus musculus. The conditions noted are these: in vivo, sc, 1 h.
Description: Toxicity in sc dosed NMRI mouse assessed as cataleptogenic potential administered 30 mins prior to testing measured every 15 mins for 60 mins by horizontal bar test
Data set [10] is described as follows: Intrinsic activity at 5HT1A receptor in Duncan Hartley guinea pig ileum. In kind it is tissue-based. To be noted: Cavia porcellus.
Data set [11] concerns the target T1, 5-hydroxytryptamine receptor 2A.
Description: Displacement of [3H]ketanserin from 5HT2A receptor in CRL:CD(SD)BR-COBS rat cortex by scintillation spectrometry
The species named for data set [12] is Mus musculus. The conditions noted are these: in vivo, 0.5 h.
Description: Sedative activity in NMRI mouse assessed as reduction in spontaneous locomotor activity administered 30 mins prior to testing
The target of data set [13] is T2, 5-hydroxytryptamine receptor 1A (Rattus norvegicus, UniProt P19327).
T2 sequence (P19327 whole entry): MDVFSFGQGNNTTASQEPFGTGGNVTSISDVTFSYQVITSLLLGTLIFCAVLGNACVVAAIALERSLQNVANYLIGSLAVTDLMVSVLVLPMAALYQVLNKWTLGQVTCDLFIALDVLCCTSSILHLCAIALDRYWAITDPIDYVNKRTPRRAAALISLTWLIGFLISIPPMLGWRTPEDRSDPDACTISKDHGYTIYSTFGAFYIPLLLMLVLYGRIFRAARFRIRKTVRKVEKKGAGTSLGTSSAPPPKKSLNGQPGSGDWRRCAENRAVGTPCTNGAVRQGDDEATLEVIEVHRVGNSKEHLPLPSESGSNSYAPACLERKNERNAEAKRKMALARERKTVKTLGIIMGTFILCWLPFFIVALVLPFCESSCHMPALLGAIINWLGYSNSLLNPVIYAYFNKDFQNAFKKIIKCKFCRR
In words: biochemical.
Description: Displacement of [3H]8OH-DPAT from 5HT1A receptor in CRL:CD(SD)BR-COBS rat hippocampus by scintillation spectrometry

The species named for data set [14] is Mus musculus. Description: animal or person. The conditions noted are these: NMRI.
Description: as §1
The subject of data set [15] is Rattus norvegicus. In words: Induction of c-Fos protein expression in rat nucleus accumbens core subregion at 10 mg/kg, ip after 1 hr by light microscopy. In kind it is functional, organism-based. The arrangement: dose 10 mg/kg.
Data set [16] relates to Rattus norvegicus. Description: Induction of c-Fos protein expression in rat nucleus accumbens core subregion at 3 mg/kg, ip after 1 hr by light microscopy. Details: dose 3 mg/kg. The class given is functional, organism-based.
The nature of data set [17]: Displacement of [3H]idazoxan from imidazole I2 receptor in rabbit kidney by filtration technique. Details: species or system Oryctolagus cuniculus. (Displacement assays read how much labelled ligand stays bound in the presence of the test substance.)
In data set [18] the test system is Mus musculus. Description: Sedative activity in NMRI mouse assessed as reduction in spontaneous locomotor activity at 10 mg/kg administered 30 mins prior to testing relative to control. In kind it is organism-based. To be noted: in vivo, 0.5 h. Details: dose 10 mg/kg.
The subject of data set [19] is Mus musculus. Description: Antipsychotic activity in NMRI mouse assessed as reduction in methamphetamine-induced locomotor activity at 3 mg/kg administered 30 mins prior to testing measured for 60 mins relative to control. In kind it is functional, organism-based. Details: dose 3 mg/kg.

These results are taken from ChEMBL document CHEMBL1139353, “Discovery of a new class of potential multifunctional atypical antipsychotic agents targeting dopamine D3 and serotonin 5-HT1A and 5-HT2A receptors: design, synthesis, and effects on behavior” (J Med Chem, 2009).

SMILES strings stand for the structures. Active and inactive are the calls of the source. No cut-off for these calls is given here. Some results are limits rather than exact numbers.

T1 sequence (P14842 whole entry): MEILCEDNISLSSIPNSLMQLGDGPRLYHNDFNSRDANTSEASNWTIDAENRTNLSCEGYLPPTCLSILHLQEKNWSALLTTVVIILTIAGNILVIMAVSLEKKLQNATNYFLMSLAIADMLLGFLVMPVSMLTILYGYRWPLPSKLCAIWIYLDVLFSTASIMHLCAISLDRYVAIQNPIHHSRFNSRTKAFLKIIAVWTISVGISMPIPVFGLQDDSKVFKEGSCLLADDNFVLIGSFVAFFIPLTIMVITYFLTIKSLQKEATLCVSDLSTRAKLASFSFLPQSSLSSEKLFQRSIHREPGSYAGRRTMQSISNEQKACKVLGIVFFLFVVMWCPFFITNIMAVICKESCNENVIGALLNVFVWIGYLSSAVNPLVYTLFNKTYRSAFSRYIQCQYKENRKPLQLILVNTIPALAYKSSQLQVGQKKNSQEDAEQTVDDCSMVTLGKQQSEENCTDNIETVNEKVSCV
D(3) dopamine receptor, sequence (P35462 whole entry): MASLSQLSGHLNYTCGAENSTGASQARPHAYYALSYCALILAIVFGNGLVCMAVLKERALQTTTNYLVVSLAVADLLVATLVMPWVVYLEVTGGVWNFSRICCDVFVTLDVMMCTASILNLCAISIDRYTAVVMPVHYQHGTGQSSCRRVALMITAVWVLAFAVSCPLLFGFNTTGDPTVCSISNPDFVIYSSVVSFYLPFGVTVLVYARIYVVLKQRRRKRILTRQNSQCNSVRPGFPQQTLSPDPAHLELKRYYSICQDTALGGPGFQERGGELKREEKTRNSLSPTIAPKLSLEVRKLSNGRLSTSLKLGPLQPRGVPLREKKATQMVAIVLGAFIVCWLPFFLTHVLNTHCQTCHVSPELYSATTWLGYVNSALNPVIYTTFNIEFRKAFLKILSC

With `Cc1cccc(N2CCN(CCCCNC(=O)c3cc4ccccc4o3)CC2)c1`, the IC50 (as a rule, the point on the concentration scale where inhibition reaches its midpoint) in [1] was found to be 230 nM; on D(3) dopamine receptor, 143 nM; in data set [10], 180 nM. Besides, the outcome in the data set on Mus musculus [2], in the data set with Rattus norvegicus [5], with Mus musculus [6], in the data set on Mus musculus [7], with Rattus norvegicus [8] and in the data set with Rattus norvegicus [15] was Active. For the same compound, the result in the data set with Mus musculus [19] was Active. The Activity entry in the data set on Mus musculus [3] was “Dose-dependent effect”; in the data set on Rattus norvegicus [4] it was “Dose-dependent effect”; with Mus musculus [18], “Toxic”. Besides, the results for the 50% effective dose (ED50) in the data set filed under Mus musculus [9], in the data set filed under Mus musculus [12] and in the data set listed under Mus musculus [14] were greater than 30 mg/kg, 5.5 mg/kg and 2.6 mg/kg, respectively. Moreover, the Ki – broadly, a measure of affinity in units of concentration, obtained from inhibition or displacement – in data set [11] amounted to 15.3 nM; in [13], 11.9 nM; in [17], 138 nM. The outcome in the data set with Rattus norvegicus [16] was inactive.
